# Data reported in article PMC8201645 (Journal of medicinal chemistry, 2020).
# Where two headings read alike, the source gives them in different places.
# Tests used:
# PPARδ-LBD [1] = target: T1, PPARδ-LBD (Homo sapiens, UniProt Q03181)
# T1 sequence (Q03181 211-439 limits assumed): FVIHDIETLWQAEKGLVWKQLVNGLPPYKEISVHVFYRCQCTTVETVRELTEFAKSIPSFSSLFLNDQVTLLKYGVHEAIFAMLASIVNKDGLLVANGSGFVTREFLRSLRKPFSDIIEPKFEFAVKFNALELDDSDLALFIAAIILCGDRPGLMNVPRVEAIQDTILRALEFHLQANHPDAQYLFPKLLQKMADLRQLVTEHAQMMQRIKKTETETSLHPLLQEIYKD
# hBM-MSCs = conditions: 10 μM cotreated with IDX medium for 5 d
# PPARδ-LBD [2] = target: T1, PPARδ-LBD; remark: listed apart in the source
# PPARδ = target: T2, PPARδ (Homo sapiens, UniProt Q03181); conditions: TR-FRET-based assay
# T2 sequence (Q03181 171-441 limits assumed): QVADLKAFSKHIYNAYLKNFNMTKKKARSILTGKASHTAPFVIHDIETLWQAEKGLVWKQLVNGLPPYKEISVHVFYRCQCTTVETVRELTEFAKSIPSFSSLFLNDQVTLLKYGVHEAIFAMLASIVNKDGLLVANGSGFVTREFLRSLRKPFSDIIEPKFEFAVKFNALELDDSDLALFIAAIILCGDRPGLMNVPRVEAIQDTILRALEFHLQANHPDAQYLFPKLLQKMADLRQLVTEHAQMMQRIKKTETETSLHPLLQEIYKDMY
# PPARγ = target: T3, PPARγ (Homo sapiens, UniProt P37231); conditions: TR-FRET-based assay
# T3 sequence (P37231 235-505 limits assumed): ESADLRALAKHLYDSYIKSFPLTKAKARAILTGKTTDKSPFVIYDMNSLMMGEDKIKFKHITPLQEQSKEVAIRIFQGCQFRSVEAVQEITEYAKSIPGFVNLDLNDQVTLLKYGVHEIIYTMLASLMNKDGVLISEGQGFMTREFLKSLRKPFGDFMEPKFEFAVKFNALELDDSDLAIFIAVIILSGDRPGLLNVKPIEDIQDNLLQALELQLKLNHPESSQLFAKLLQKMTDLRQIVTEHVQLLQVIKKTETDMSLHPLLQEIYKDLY
# human A3AR [3] = target: T4, human A3AR (Homo sapiens, UniProt P0DMS8); conditions: at 10 μM; previously reported; cited from earlier work
# T4 sequence (P0DMS8 1-318): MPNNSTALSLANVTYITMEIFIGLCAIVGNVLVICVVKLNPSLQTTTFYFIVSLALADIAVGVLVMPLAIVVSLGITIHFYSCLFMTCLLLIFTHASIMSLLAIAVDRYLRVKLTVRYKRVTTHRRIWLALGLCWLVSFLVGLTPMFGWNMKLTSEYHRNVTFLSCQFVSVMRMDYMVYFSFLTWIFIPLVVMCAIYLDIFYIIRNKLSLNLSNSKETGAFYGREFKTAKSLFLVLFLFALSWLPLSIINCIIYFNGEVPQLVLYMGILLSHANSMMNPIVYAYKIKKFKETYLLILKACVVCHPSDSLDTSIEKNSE
# PPARγ-LBD = target: T5, PPARγ-LBD (Homo sapiens, UniProt P37231); conditions: fluorescein-TRAP220/DRIP peptide
# T5 sequence (P37231 238-503 limits assumed): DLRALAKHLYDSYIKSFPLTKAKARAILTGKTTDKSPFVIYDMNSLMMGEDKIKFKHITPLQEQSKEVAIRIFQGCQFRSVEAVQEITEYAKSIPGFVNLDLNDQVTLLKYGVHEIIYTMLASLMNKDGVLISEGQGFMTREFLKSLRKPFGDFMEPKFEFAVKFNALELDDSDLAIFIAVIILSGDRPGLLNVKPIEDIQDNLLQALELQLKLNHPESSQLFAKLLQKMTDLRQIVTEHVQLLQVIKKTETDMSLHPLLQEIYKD
# human A3AR [4] = target: T4, human A3AR; conditions: at 10 μM
SMILES,interaction between PPARδ-LBD and corepressor peptide SMRT-ID2 (PPARδ-LBD [1]),adiponectin production compared to the IDX vehicle control (hBM-MSCs),recruitment of coactivator peptide C33 to PPARδ-LBD (PPARδ-LBD [2]),hA3AR % replacement (human A3AR [3]) [% at 10 μM],also measured
"O[C@@H]1[C@H](O)CS[C@H]1Cn1cnc2c(NCc3cccc(F)c3)nc(Cl)nc21 [4a, (2S,3R,4S)-2-((2-Chloro-6-((3-fluorobenzyl)amino)-9H-purin-9-yl)methyl)tetrahydrothiophene-3,4-diol]",significantly increased the interaction between PPARδ-LBD and the corepressor peptide,significantly promoted adiponectin production,no effect on the recruitment of coactivator peptide,17,PPARδ-binding activity (in words) (PPARδ): significant dual receptor-binding activity; PPARγ-binding activity (in words) (PPARγ): significant dual receptor-binding activity
"O[C@@H]1[C@H](O)CS[C@H]1Cn1cnc2c(NCc3cccc(Cl)c3)nc(Cl)nc21 [4b, (2S,3R,4S)-2-((2-Chloro-6-((3-chlorobenzyl)amino)-9H-purin-9-yl)methyl)tetrahydrothiophene-3,4-diol]",,,,13,
"O[C@@H]1[C@H](O)CS[C@H]1Cn1cnc2c(NCc3cccc(Br)c3)nc(Cl)nc21 [4c, (2S,3R,4S)-2-((6-((3-Bromobenzyl)amino)-2-chloro-9H-purin-9-yl)methyl)tetrahydrothiophene-3,4-diol]",significantly increased the interaction between PPARδ-LBD and the corepressor peptide,significantly promoted adiponectin production,no effect on the recruitment of coactivator peptide,21,PPARδ-binding activity (in words) (PPARδ): significant dual receptor-binding activity; PPARγ-binding activity (in words) (PPARγ): significant dual receptor-binding activity
"O[C@@H]1[C@H](O)CS[C@H]1Cn1cnc2c(NCc3cccc(I)c3)nc(Cl)nc21 [4d, (2S,3R,4S)-2-((2-Chloro-6-((3-iodobenzyl)amino)-9H-purin-9-yl)-methyl)tetrahydrothiophene-3,4-diol]",significantly increased the interaction between PPARδ-LBD and the corepressor peptide,,no effect on the recruitment of coactivator peptide,10,"PPARδ corepressor recruitment in presence of PPARδ agonist 27 (PPARδ-LBD [1]; 27 (1 μM), 4d (10 μM), 28 (1 μM)): significantly inhibited by 27; PPARδ-binding activity (in words) (PPARδ): significant dual receptor-binding activity"
"O[C@@H]1[C@H](O)CS[C@H]1Cn1cnc2c(NCc3cccc(F)c3)ncnc21 [4e, (2S,3R,4S)-2-((6-((3-Fluorobenzyl)amino)-9H-purin-9-yl)methyl)-tetrahydrothiophene-3,4-diol]",,,,9,
"O[C@@H]1[C@H](O)CS[C@H]1Cn1cnc2c(NCc3cccc(Cl)c3)ncnc21 [4f, (2S,3R,4S)-2-((6-((3-Chlorobenzyl)amino)-9H-purin-9-yl)methyl)-tetrahydrothiophene-3,4-diol]",,,,9,
"O[C@@H]1[C@H](O)CS[C@H]1Cn1cnc2c(NCc3cccc(Br)c3)ncnc21 [4g, (2S,3R,4S)-2-((6-((3-Bromobenzyl)amino)-9H-purin-9-yl)methyl)-tetrahydrothiophene-3,4-diol]",,,,6,
"O[C@@H]1[C@H](O)CS[C@H]1Cn1cnc2c(NCc3cccc(I)c3)ncnc21 [4h, (2S,3R,4S)-2-((6-((3-Iodobenzyl)amino)-9H-purin-9-yl)methyl)-tetrahydrothiophene-3,4-diol]",,,,14,
"CC#Cc1nc(NCc2cccc(F)c2)c2ncn(C[C@@H]3SC[C@@H](O)[C@H]3O)c2n1 [4i, (2S,3R,4S)-2-((6-((3-Fluorobenzyl)amino)-2-(prop-1-yn-1-yl)-9H-purin-9-yl)methyl)tetrahydrothiophene-3,4-diol]",,significantly promoted adiponectin production,,,
"CC#Cc1nc(NCc2cccc(Cl)c2)c2ncn(C[C@@H]3SC[C@@H](O)[C@H]3O)c2n1 [4j, (2S,3R,4S)-2-((6-((3-Chlorobenzyl)amino)-2-(prop-1-yn-1-yl)-9H-purin-9-yl)methyl)tetrahydrothiophene-3,4-diol]",,,,,coactivator peptide recruitment to PPARγ-LBD (PPARγ-LBD): no statistical significance
"CC#Cc1nc(NCc2cccc(Br)c2)c2ncn(C[C@@H]3SC[C@@H](O)[C@H]3O)c2n1 [4k, (2S,3R,4S)-2-((6-((3-Bromobenzyl)amino)-2-(prop-1-yn-1-yl)-9H-purin-9-yl)methyl)tetrahydrothiophene-3,4-diol]",,significantly promoted adiponectin production,,,
"CC#Cc1nc(NCc2cccc(I)c2)c2ncn(C[C@@H]3SC[C@@H](O)[C@H]3O)c2n1 [4l, (2S,3R,4S)-2-((6-((3-Iodobenzyl)amino)-2-(prop-1-yn-1-yl)-9H-purin-9-yl)methyl)tetrahydrothiophene-3,4-diol]",,significantly promoted adiponectin production,,,
"O[C@@H]1[C@H](O)CO[C@H]1Cn1cnc2c(NCc3cccc(Cl)c3)nc(Cl)nc21 [4n, (2S,3R,4R)-2-((2-Chloro-6-((3-chlorobenzyl)amino)-9H-purin-9-yl)methyl)tetrahydrofuran-3,4-diol]",significantly increased the interaction between PPARδ-LBD and the corepressor peptide,significantly promoted adiponectin production,no effect on the recruitment of coactivator peptide,,
"O[C@@H]1[C@H](O)CO[C@H]1Cn1cnc2c(NCc3cccc(Br)c3)nc(Cl)nc21 [4o, (2S,3R,4R)-2-((6-((3-Bromobenzyl)amino)-2-chloro-9H-purin-9-yl)methyl)tetrahydrofuran-3,4-diol]",significantly increased the interaction between PPARδ-LBD and the corepressor peptide,significantly promoted adiponectin production,no effect on the recruitment of coactivator peptide,,
"O[C@@H]1[C@H](O)CO[C@H]1Cn1cnc2c(NCc3cccc(I)c3)nc(Cl)nc21 [4p, (2S,3R,4R)-2-((2-Chloro-6-((3-iodobenzyl)amino)-9H-purin-9-yl)-methyl)tetrahydrofuran-3,4-diol]",,,,,hA3AR % replacement (human A3AR [4]): 3% at 10 μM
